The source of these data is patent US10519163B2, “Pyrrolopyrimidine derivatives as TAM inhibitors” (Incyte Corporation, priority 2015, dated 2019).

The structures appear in SMILES notation. Where two headings read alike, the source gives them in different places.

The target of one assay is phosphor-Axl (Homo sapiens (Human), UniProt P30530). Nature of the assay: TAM Kinase Assay (HTRF), phosphor-Axl.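 Note: test enzyme was recombinant Axl protein, pre-activated by autophosphorylation with ATP and MgCl2.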 The assay is classed as biochemical. The note with it: read-out: Phospho-Axl IC50. On the technique in general: In TR-FRET formats the signal depends on donor and acceptor labels being close together.
For another assay, the target named is c-Mer (Homo sapiens (Human), UniProt Q12866). Nature of the assay: TAM Kinase Assay (HTRF), c-Mer. It counts as biochemical.
A further assay deals with Tyro3 (Homo sapiens (Human), UniProt Q06418). Nature of the assay: TAM Kinase Assay (HTRF), Tyro3. The assay is classed as biochemical. The note with it: 0.366 nM Tyro3, HTRF, 60 min room temperature; read-out: Tyro3IC50.
Another assay has as its system NK cells. The note with it: cited from earlier work.
The test system of assay [1] is tumor models with different histologies. The note with it: cited from earlier work.
A further assay has as its target JAK2 (Homo sapiens (Human), UniProt O60674). The note with it: selectivity ratio, IC50 at 1 mM ATP; cited from earlier work.
The mark [2] stands for this setting: 5.1 nM phosphor-Axl, HTRF, 60 min room temperature.
Setting [3] is: 0.0625 nM c-Mer, HTRF, 60 min room temperature, read-out: c-Mer IC50.

phosphor-Axl, sequence (P30530 26-894): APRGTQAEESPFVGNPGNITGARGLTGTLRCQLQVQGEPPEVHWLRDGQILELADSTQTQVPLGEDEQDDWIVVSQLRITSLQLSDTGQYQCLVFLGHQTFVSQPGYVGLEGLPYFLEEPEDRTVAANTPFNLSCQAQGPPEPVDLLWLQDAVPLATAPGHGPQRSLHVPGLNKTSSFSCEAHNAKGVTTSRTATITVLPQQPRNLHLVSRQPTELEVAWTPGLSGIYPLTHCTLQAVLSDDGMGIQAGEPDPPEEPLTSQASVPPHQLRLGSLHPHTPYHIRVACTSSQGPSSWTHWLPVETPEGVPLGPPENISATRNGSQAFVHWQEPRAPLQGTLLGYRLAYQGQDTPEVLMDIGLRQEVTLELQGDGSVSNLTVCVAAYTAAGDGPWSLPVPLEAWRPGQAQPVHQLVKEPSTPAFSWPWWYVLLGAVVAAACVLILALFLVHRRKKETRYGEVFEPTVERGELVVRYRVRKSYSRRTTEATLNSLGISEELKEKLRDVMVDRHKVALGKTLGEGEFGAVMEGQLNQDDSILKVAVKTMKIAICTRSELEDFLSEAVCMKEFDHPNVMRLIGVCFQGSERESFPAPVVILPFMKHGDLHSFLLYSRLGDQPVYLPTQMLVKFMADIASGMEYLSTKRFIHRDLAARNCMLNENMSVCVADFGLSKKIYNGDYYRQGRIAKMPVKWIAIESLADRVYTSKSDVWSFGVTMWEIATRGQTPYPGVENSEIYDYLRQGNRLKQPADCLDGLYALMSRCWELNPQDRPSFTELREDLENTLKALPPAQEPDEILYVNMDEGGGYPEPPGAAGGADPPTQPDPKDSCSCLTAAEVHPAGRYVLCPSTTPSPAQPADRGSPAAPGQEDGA
Tyro3, sequence (Q06418 41-890): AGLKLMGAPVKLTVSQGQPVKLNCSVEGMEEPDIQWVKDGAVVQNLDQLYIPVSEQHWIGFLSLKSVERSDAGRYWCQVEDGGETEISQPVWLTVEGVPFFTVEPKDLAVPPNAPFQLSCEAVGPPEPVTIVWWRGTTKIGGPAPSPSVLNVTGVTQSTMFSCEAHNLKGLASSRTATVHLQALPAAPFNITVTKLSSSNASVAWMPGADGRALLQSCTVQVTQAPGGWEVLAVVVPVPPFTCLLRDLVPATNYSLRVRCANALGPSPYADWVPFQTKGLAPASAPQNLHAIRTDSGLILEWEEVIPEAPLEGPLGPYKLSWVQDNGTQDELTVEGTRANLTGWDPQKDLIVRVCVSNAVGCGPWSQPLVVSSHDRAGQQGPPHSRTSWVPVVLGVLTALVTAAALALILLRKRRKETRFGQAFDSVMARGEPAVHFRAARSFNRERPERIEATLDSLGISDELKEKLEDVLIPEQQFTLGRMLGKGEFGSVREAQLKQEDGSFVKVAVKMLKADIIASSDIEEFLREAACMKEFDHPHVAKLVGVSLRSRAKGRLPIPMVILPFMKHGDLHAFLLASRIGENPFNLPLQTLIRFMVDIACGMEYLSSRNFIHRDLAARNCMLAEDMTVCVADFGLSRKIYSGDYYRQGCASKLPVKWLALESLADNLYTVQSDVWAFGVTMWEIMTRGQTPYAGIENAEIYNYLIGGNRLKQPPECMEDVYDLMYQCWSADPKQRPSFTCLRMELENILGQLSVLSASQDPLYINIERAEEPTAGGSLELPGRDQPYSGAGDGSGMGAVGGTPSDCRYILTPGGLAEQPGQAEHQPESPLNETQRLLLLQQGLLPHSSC
JAK2, sequence (O60674 whole entry, species assumed): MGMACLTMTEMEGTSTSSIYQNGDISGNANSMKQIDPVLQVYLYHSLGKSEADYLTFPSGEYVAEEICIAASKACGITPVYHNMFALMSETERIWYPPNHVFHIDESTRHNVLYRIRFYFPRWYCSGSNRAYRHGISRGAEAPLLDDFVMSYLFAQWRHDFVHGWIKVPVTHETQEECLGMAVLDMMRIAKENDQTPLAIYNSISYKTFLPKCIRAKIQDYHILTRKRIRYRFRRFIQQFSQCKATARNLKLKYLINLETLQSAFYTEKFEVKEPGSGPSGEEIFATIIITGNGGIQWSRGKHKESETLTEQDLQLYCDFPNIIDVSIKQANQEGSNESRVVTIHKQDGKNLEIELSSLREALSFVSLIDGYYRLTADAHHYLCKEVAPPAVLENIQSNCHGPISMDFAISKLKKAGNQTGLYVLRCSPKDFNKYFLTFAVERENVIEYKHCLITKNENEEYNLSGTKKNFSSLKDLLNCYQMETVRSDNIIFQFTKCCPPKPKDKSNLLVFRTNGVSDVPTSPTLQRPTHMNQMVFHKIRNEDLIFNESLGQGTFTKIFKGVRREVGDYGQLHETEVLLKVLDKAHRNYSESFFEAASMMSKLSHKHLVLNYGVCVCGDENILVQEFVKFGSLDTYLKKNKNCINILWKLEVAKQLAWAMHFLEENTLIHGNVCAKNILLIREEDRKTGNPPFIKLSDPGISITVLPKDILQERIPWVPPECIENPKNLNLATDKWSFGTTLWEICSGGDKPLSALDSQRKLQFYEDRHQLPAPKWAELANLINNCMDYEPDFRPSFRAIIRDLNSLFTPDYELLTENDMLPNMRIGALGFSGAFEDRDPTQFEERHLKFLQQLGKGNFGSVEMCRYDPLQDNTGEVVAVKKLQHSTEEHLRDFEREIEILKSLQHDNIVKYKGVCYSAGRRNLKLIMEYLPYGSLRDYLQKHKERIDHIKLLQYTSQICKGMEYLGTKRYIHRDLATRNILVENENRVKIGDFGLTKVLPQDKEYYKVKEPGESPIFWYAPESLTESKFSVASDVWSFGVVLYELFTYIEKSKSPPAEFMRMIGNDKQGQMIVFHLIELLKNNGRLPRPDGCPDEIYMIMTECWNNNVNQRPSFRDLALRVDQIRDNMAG
Experimental for Tyro3: (§1) 0.1 ul test compounds dissolved in DMSO were transferred from compound plates to white 384-well assay plates (Greiner [sequence] plates). […] The plate was protected from light and incubated at room temperature for 60 min.
Experimental for c-Mer: as §1
Experimental for phosphor-Axl: Autophosphorylation of Axl was carried out by incubating the recombinant Axl protein (Life Technologies, PV4275) in buffer containing 50 mM Tris, pH7.5, 0.2 mg/ml Axl, 5 mM ATP, 20 mM MgCl2 and 2 mM DTT at room temperature for 1 hour.
as §1

Turning to `FC(F)C1(c2cccc(-c3ncnc4[nH]ccc34)c2)Cc2ccccc2C1` [Example 20, 4-{3-[2-(Difluoromethyl)-2,3-dihydro-1H-inden-2-yl]phenyl}-7H-pyrrolo[2,3-d]pyrimidine], the IC50 at phosphor-Axl (setting [2]), at c-Mer (setting [3]) and on Tyro3 was more than 3 µM in each case.
For the compound `O=C(NCC1(c2cccc(-c3ncnc4[nH]ccc34)c2)Cc2ccccc2C1)c1ccno1` [Example 31, N-({2-[3-(7H-Pyrrolo[2,3-d]pyrimidin-4-yl)phenyl]-2,3-dihydro-1H-inden-2-yl}methyl)isoxazole-5-carboxamide], the IC50 on phosphor-Axl (setting [2]), at c-Mer (setting [3]) and at Tyro3 was more than 3 µM throughout.
Regarding `COC(=O)NCC1(c2cccc(-c3ncnc4[nH]ccc34)c2)Cc2ccccc2C1` [Example 22, Methyl ({2-[3-(7H-pyrrolo[2,3-d]pyrimidin-4-yl)phenyl]-2,3-dihydro-1H-inden-2-yl}methyl)carbamate], the values for the IC50 at phosphor-Axl (setting [2]), at c-Mer (setting [3]) and at Tyro3 were less than 0.5 µM, less than 0.5 µM and more than 3 µM, respectively.
Regarding `CC(C)C(=O)NCC1(c2cccc(-c3ncnc4[nH]ccc34)c2)Cc2ccccc2C1` [Example 17, 2-Methyl-N-({2-[3-(7H-pyrrolo[2,3-d]pyrimidin-4-yl)phenyl]-2,3-dihydro-1H-inden-2-yl}methyl)propanamide], the IC50 at phosphor-Axl (setting [2]) is less than 0.5 µM; on c-Mer (setting [3]) it was less than 0.5 µM; on Tyro3, more than 3 µM.
In the case of `NCC1(c2ccnc(-c3ncnc4[nH]ccc34)c2)Cc2ccccc2C1` [Example 4, 1-{2-[2-(7H-Pyrrolo[2,3-d]pyrimidin-4-yl)pyridin-4-yl]-2,3-dihydro-1H-inden-2-yl}methanamine], the IC50 at phosphor-Axl (setting [2]) was 0.5 to 1 µM; at c-Mer (setting [3]) it was 0.5 to 1 µM; at Tyro3 it was more than 3 µM.
As for `NCC1(c2cccc(-c3ncnc4[nH]ccc34)c2)Cc2ccncc2C1` (stereo not drawn) [Example 5, 1-{6-[3-(7H-Pyrrolo[2,3-d]pyrimidin-4-yl)phenyl]-6,7-dihydro-5H-cyclopenta[c]pyridin-6-yl}methanamine], the figures for the IC50 at phosphor-Axl (setting [2]), at c-Mer (setting [3]) and on Tyro3 were less than 0.5 µM, less than 0.5 µM and 1 to 3 µM, respectively.
`O=C(NCC1(c2cccc(-c3ncnc4[nH]ccc34)c2)Cc2ccccc2C1)C1CCCC1` [Example 27, N-({2-[3-(7H-Pyrrolo[2,3-d]pyrimidin-4-yl)phenyl]-2,3-dihydro-1H-inden-2-yl}methyl)cyclopentanecarboxamide]: the IC50 at phosphor-Axl (setting [2]) was less than 0.5 µM; on Tyro3, more than 3 µM.
Take `FCC1(c2cccc(-c3ncnc4[nH]ccc34)c2)Cc2ccccc2C1` [Example 19, 4-{3-[2-(Fluoromethyl)-2,3-dihydro-1H-inden-2-yl]phenyl}-7H-pyrrolo[2,3-d]pyrimidine]: the IC50 on phosphor-Axl (setting [2]), at c-Mer (setting [3]) and at Tyro3 was more than 3 µM each time.
For the compound `Cn1cc(C(=O)NCC2(c3cccc(-c4ncnc5[nH]ccc45)c3)Cc3ccccc3C2)cn1` [Example 33, 1-Methyl-N-({2-[3-(7H-pyrrolo[2,3-d]pyrimidin-4-yl)phenyl]-2,3-dihydro-1H-inden-2-yl}methyl)-1H-pyrazole-4-carboxamide], the IC50 on phosphor-Axl, at c-Mer and at Tyro3 was more than 3 µM in each case.
Turning to `OCC1(c2cccc(-c3ncnc4[nH]ccc34)c2)Cc2ccccc2C1` [Example 12, {2-[3-(7H-Pyrrolo[2,3-d]pyrimidin-4-yl)phenyl]-2,3-dihydro-1H-inden-2-yl}methanol], the IC50 on phosphor-Axl (setting [2]) was less than 0.5 µM; on c-Mer (setting [3]), less than 0.5 µM; on Tyro3, more than 3 µM.
With `CNCC1(c2cccc(-c3ncnc4[nH]ccc34)c2)Cc2ccccc2C1` [Example 24, N-Methyl-1-{2-[3-(7H-pyrrolo[2,3-d]pyrimidin-4-yl)phenyl]-2,3-dihydro-1H-inden-2-yl}methanamine], the IC50 on phosphor-Axl (setting [2]) was less than 0.5 µM; at c-Mer (setting [3]), less than 0.5 µM; at Tyro3 it was more than 3 µM.
`NCC1(c2cccc(-c3ncnc4[nH]ccc34)c2)Cc2cccnc2C1` (stereo not drawn) [Example 6, 1-{6-[3-(7H-Pyrrolo[2,3-d]pyrimidin-4-yl)phenyl]-6,7-dihydro-5H-cyclopenta[b]pyridin-6-yl}methanamine]: the IC50 on phosphor-Axl (setting [2]) was less than 0.5 µM; on c-Mer (setting [3]), less than 0.5 µM; at Tyro3, more than 3 µM.
Consider `CN(C)CC1(c2cccc(-c3ncnc4[nH]ccc34)c2)Cc2ccccc2C1` [Example 23, N,N-Dimethyl-1-{2-[3-(7H-pyrrolo[2,3-d]pyrimidin-4-yl)phenyl]-2,3-dihydro-1H-inden-2-yl}methanamine], for which the IC50 at phosphor-Axl (setting [2]) is less than 0.5 µM; on c-Mer (setting [3]), less than 0.5 µM; at Tyro3 it was more than 3 µM.
As for `CCOc1cn(-c2ccc(F)cc2C)nc1C(=O)Nc1ccc(Oc2ccnc3cc(OC)c(OC)cc23)c(F)c1` [LDC1267], the “activation of NK cells” value in the assay with NK cells was “activates NK cells”. Moreover, the “metastasis in tumor models” value in assay [1] is recorded as “blocks metastasis”.
Regarding `CC(=O)NCC1(c2cc(-c3ncnc4[nH]ccc34)ccn2)Cc2ccccc2C1` [Example 8, N-({2-[4-(7H-Pyrrolo[2,3-d]pyrimidin-4-yl)pyridin-2-yl]-2,3-dihydro-1H-inden-2-yl}methyl)acetamide], the IC50 is 1 to 3 µM at phosphor-Axl (setting [2]) and more than 3 µM on Tyro3.
Turning to `NCC1(c2cc(-c3ncnc4[nH]ccc34)cc(Cl)n2)Cc2ccccc2C1` [Example 7, 1-{2-[6-Chloro-4-(7H-pyrrolo[2,3-d]pyrimidin-4-yl)pyridin-2-yl]-2,3-dihydro-1H-inden-2-yl}methanamine], the figures for the IC50 at phosphor-Axl (setting [2]), at c-Mer (setting [3]) and on Tyro3 were less than 0.5 µM, less than 0.5 µM and more than 3 µM, respectively.
With `CC(=O)NCC1(c2cccc(-c3ncnc4[nH]ccc34)c2)Cc2ccccc2C1` [Example 16, N-({2-[3-(7H-Pyrrolo[2,3-d]pyrimidin-4-yl)phenyl]-2,3-dihydro-1H-inden-2-yl}methyl)acetamide], the IC50 was less than 0.5 µM on phosphor-Axl (setting [2]), less than 0.5 µM on c-Mer (setting [3]) and more than 3 µM at Tyro3.
Consider `NCC1(c2cccc(-c3ncnc4[nH]ccc34)c2)Cc2ccccc2C1` [Example 11, 1-{2-[3-(7H-Pyrrolo[2,3-d]pyrimidin-4-yl)phenyl]-2,3-dihydro-1H-inden-2-yl}methanamine], for which the IC50 was less than 0.5 µM on phosphor-Axl (setting [2]), less than 0.5 µM at c-Mer (setting [3]) and 1 to 3 µM on Tyro3.
Take `CC(=O)NCC1(c2cccc(-c3ncnc4[nH]ccc34)c2)Cc2ccncc2C1` (stereo not drawn) [Example 10, N-({6-[3-(7H-Pyrrolo[2,3-d]pyrimidin-4-yl)phenyl]-6,7-dihydro-5H-cyclopenta[c]pyridin-6-yl}methyl)acetamide]: the IC50 on phosphor-Axl (setting [2]) was 1 to 3 µM; at Tyro3 it was more than 3 µM.
Take `CS(=O)(=O)NCC1(c2cccc(-c3ncnc4[nH]ccc34)c2)Cc2ccccc2C1` [Example 21, N-({2-[3-(7H-Pyrrolo[2,3-d]pyrimidin-4-yl)phenyl]-2,3-dihydro-1H-inden-2-yl}methyl)methanesulfonamide]: the IC50 on phosphor-Axl (setting [2]) was 0.5 to 1 µM; at c-Mer (setting [3]), 1 to 3 µM; at Tyro3, more than 3 µM.
Turning to `NCC1(c2cc(-c3ncnc4[nH]ccc34)ccn2)Cc2ccccc2C1` [Example 3, 1-{2-[4-(7H-Pyrrolo[2,3-d]pyrimidin-4-yl)pyridin-2-yl]-2,3-dihydro-1H-inden-2-yl}methanamine], the IC50 on phosphor-Axl (setting [2]) was less than 0.5 µM; at c-Mer (setting [3]), less than 0.5 µM; at Tyro3, 1 to 3 µM.
Consider `O=C(NCC1(c2cccc(-c3ncnc4[nH]ccc34)c2)Cc2ccccc2C1)c1cccs1` [Example 28], for which the IC50 was 1 to 3 µM on phosphor-Axl (setting [2]), more than 3 µM at c-Mer (setting [3]) and more than 3 µM on Tyro3.
`N#CCC1(n2cc(-c3ncnc4[nH]ccc34)cn2)CN(C2CCN(C(=O)c3ccnc(C(F)(F)F)n3)CC2)C1` [Compound 9, [3-[4-(7H-pyrrolo[2,3-d]pyrimidin-4-yl)-1H-pyrazol-1-yl]-1-(1-{[2-(trifluoromethyl)pyrimidin-4-yl]carbonyl}piperidin-4-yl)azetidin-3-yl]acetonitrile, reference compound]: the JAK2/JAK1 on JAK2 is listed as more than 10.
On to `O=C(NCC1(c2cccc(-c3ncnc4[nH]ccc34)c2)Cc2ccccc2C1)C1CC1` [Example 18, N-({2-[3-(7H-Pyrrolo[2,3-d]pyrimidin-4-yl)phenyl]-2,3-dihydro-1H-inden-2-yl}methyl)cyclopropanecarboxamide], for which the values for the IC50 on phosphor-Axl (setting [2]), at c-Mer (setting [3]) and on Tyro3 were less than 0.5 µM, less than 0.5 µM and more than 3 µM, respectively.
Consider `COCC1(c2cccc(-c3ncnc4[nH]ccc34)c2)Cc2ccccc2C1` [Example 25, 4-{3-[2-(Methoxymethyl)-2,3-dihydro-1H-inden-2-yl]phenyl}-7H-pyrrolo[2,3-d]pyrimidine], for which the IC50 at phosphor-Axl (setting [2]) was 1 to 3 µM; at c-Mer (setting [3]) it was more than 3 µM; on Tyro3, more than 3 µM.
Regarding `NCC1(c2cccc(-c3ncnc4[nH]ccc34)n2)Cc2ccccc2C1` [Example 2, 1-{2-[6-(7H-Pyrrolo[2,3-d]pyrimidin-4-yl)pyridin-2-yl]-2,3-dihydro-1H-inden-2-yl}methanamine], the IC50 on phosphor-Axl (setting [2]) was 1 to 3 µM; on c-Mer (setting [3]) it was 1 to 3 µM; at Tyro3, more than 3 µM.
For `NCC1(c2cncc(-c3ncnc4[nH]ccc34)c2)Cc2ccccc2C1` [Example 1, 1-{2-[5-(7H-Pyrrolo[2,3-d]pyrimidin-4-yl)pyridin-3-yl]-2,3-dihydro-1H-inden-2-yl}methanamine], the IC50 was less than 0.5 µM on phosphor-Axl (setting [2]), less than 0.5 µM on c-Mer (setting [3]) and more than 3 µM at Tyro3.
